Measurements: paper PMC4101055 (Antiviral research, 2014)
Entries after “also recorded” stand apart in the source; their conditions may differ.

Experiments:
[1] = molecular target: recombinant genotype D HBV RNaseH (Hepatitis B virus genotype D subtype ayw, UniProt P03156); test: Oligonucleotide-directed RNA cleavage assay, HBV genotype D RNaseH; format: biochemical; conditions: for activity against the HBV RNaseH (in words): genotype D and C enzymes, up to 60 µM
HIV RNaseH = conditions: read-out: IC50 against the HIV RNaseH; ref Billamboz et al., 2011b; cited from earlier work
genotype C HBV RNaseH = genotype C HBV RNaseH (Hepatitis B virus, UniProt P12933); test: Oligonucleotide-directed RNA cleavage assay, HBV genotype C RNaseH; format: biochemical; conditions: read-out: Genotype C IC50; average ± SD, three or four independent assays
E. coli RNaseH = E. coli RNaseH (Escherichia coli, UniProt P0A7Y4); test: Oligonucleotide-directed cleavage assay with E. coli RNaseH; format: biochemical; conditions: identical conditions to the HBV RNaseH assay
[2] = tested on: HBV genotype D replication in HepDES19 cells; test: HBV replication assay in HepDES19 cells; format: cell-based, Hepatitis B virus; conditions: same samples as the EC50 assay
HepDES19 cells = test: MTT cytotoxicity assay; format: cell-based, human; conditions: read-out: Cytotoxicity CC50, MTT, 3 days treatment
HBV replication = conditions: read-out: EC50 against HBV replication; ref Hu et al., 2013; cited from earlier work

recombinant genotype D HBV RNaseH, sequence (P03156 671-832): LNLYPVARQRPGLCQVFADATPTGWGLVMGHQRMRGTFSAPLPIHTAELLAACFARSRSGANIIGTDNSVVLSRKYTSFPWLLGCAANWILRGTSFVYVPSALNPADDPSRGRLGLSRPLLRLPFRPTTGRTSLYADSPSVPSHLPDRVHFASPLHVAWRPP
E. coli RNaseH, sequence (P0A7Y4 whole entry): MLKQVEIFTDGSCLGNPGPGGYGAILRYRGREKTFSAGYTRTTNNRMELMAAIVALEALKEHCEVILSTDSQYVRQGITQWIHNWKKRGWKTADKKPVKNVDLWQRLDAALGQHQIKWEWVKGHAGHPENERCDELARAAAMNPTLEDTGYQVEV
genotype C HBV RNaseH, sequence (P12933 682-843): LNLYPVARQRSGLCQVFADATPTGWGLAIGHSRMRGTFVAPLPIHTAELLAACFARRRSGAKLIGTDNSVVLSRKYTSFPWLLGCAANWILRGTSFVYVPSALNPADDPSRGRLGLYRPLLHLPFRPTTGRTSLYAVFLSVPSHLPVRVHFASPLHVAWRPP

SMILES: O=C1c2ccccc2C(=O)N1O [Compound 138]
- activity against the HBV RNaseH (in words) [1]: inactivity

SMILES: O=C1CCC(=O)N1O [Compound 139]
- activity against the HBV RNaseH (in words) [1]: inactivity

SMILES: COC(=O)C1C(=O)N(O)C(=O)c2ccccc21 (stereo not shown) [Compound 81, 2-hydroxy-4-methoxycarbonylisoquinoline-1,3(2H,4H)-dione]
- activity against the HBV RNaseH (in words) [1]: negligible activity
- IC50 (HIV RNaseH): 61 nM

SMILES: O=C1Cc2ccccc2C(=O)N1O [Compound 1, 2-hydroxyisoquinoline-1,3(2H,4H)-dione]
- IC50 [1]: 28.1 ± 9.7 µM
- IC50 (genotype C HBV RNaseH): 30.4 ± 12.9 µM
- Effect on E. coli RNaseH activity (E. coli RNaseH): not affected; also recorded: inactive
- Accumulation of minus-polarity HBV DNA strand [2]: not suppressed
- CC50 (HepDES19 cells): 74.7 ± 24 µM

SMILES: CC(C)c1ccc(O)c(=O)c(O)c1 [Compound 46, β-thujaplicinol]
- EC50 (HBV replication): ~5 µM
